Experimental data: patent US5270334A, “4-methoxy-5-methyl-pyran-3-ol natural products and derivatives thereof” (E. R. Squibb & Sons, Inc., priority 1992, dated 1993)
Converted amounts (≈) assume the structure as drawn. Where two headings read alike, the source gives them in different places.

Columns and labels:
Saccaromyces cerevisiae = assay: agar diffusion assay with yeasts (zone of inhibition); type: cell-based; details: read-out: Zone diameter
Description: (§1) In addition to M.I.C. determinations, the following methodology was used to determine the activity of the compounds of this invention against yeasts. Fresh F-4 broth cultures of the test organisms were made from frozen vials. The broth cultures were incubated at 30° C. for 18 to 24 hours at which time the average cell count was assumed to be 5×10^7 CFU per ml. They were then used to inoculate flasks containing 300 ml of F-4 agar that had been melted and cooled to 48° C. in a temperature-controlled water bath. The inoculum consisted of 1.7 ml to give an inoculum level of about 2.8×10^5 CFU per ml. 25 ml of the inoculated agar was then poured into 150×15mm sterile Petri dishes and allowed to harden.
(§2) The medium was sterilized at 121° C. for 15 minutes at 15 psi.
(§3) F-4 agar has the same composition as the broth but with the addition of 15 g agar per liter.
(§4) Cellulose discs, 6.35 mm diameter, from Schleicher & Schuell, Inc., Keene, N.H., were charged with 10 μl of a solution composed of 1 mg/ml of lanomycin or scopularin in methanol. The discs were then placed on the surface of the inoculated agar plates of the test yeast strains, and the plates incubated at 30° C. for 18 to 24 hours. At that time, the diameter of the zones of inhibition was measured.

Candida glabrata = assay: as above; type: cell-based; details: Nakaseomyces glabratus, SC9342; Candida glabrata SC 9342; disc with 10 μl of 1 mg/ml; read-out: Zone diameter
Description: as §1, §2, §3, §4

Candida quillermondi = assay: as above; type: cell-based
Description: as §1, §2, §3, §4

Candida krusei = assay: as above; type: cell-based; details: Pichia kudriavzevii, SC2969; Candida krusei SC 2969; disc with 10 μl of 1 mg/ml; read-out: Zone diameter
Description: as §1, §2, §3, §4

Candida albicans [1] = assay: as above; type: cell-based
Description: as §1, §2, §3, §4

Cryptococcus neoformis = assay: as above; type: cell-based
Description: as §1, §2, §3, §4

Candida tropicalis [2] = assay: as above; type: cell-based
Description: as §1, §2, §3, §4

Candida parakrusei = assay: as above; type: cell-based
Description: as §1, §2, §3, §4

[3] = system: cytochrome P450 enzymes, such as lanosterol demethylase; assay: inhibition of cytochrome P450 enzymes (general statement); type: biochemical; details: in words
Staphylococcus aureus = assay: Antibacterial and antifungal activity of lanomycin, agar dilution assay (Table 4); type: cell-based
Description: (§5) *Minimal inhibitory concentrations were determined by agar dilution assay

[4] = system: Trichophyton mentagrophytes; assay: as above; type: cell-based; details: SC2637, Trichophyton mentagrophytes SC 2637
Description: as §5

Pseudomonas aeruginosa = assay: as above; type: cell-based; details: SC8329; Pseudomonas aeruginosa SC 8329
Description: as §5

Candida guillermondii = assay: as above; type: cell-based; details: SC2996, Candida guillermondii SC 2996
Description: as §5

Micrococcus luteus = assay: as above; type: cell-based; details: SC2495; Micrococcus luteus SC 2495
Description: as §5

Klebsiella aerogenes = assay: as above; type: cell-based; details: SC10440; Klebsiella aerogenes SC 10440
Description: as §5

Candida albicans [5] = assay: as above; type: cell-based
Description: as §5

Escherichia coli = assay: as above; type: cell-based; details: SC8294; Escherichia coli SC 8294
Description: as §5

Enterococcus faecalis = assay: as above; type: cell-based; details: SC9011; Enterococcus faecalis SC 9011
Description: as §5

Aspergillus fumigatus [6] = assay: as above; type: cell-based; details: SC2100, Aspergillus fumigatus SC 2100
Description: as §5

Trichophyton rubrum = assay: as above; type: cell-based; details: SC9199, Trichophyton rubrum SC 9199
Description: as §5

Candida tropicalis [7] = assay: as above; type: cell-based; details: SC2963, Candida tropicalis SC 2963
Description: as §5

Proteus mirabilis = assay: as above; type: cell-based; details: SC3855; Proteus mirabilis SC 3855
Description: as §5

yeasts and fungi = assay: activity against a variety of yeasts and fungi (general statement); type: cell-based; details: in words
Microsporum canis [8] = assay: Activity of lanomycin against filamentous fungi, agar dilution (Table 6); type: cell-based; details: SC9237; Microsporum canis SC 9237; 10^3 cfu
Description: (§6) MICs were determined by the agar dilution method using a medium composed of tryptone (5 g), malt extract (3 g), glucose (10 g) and yeast extract (3 g) in 1 L distiled water; 10^4 cfu of the test organism was applied to the agar.
(§7) MICs were determined as in Table 5 except that the inoculum was 10^3 cfu.

Aspergillus fumigatus [9] = assay: as above; type: cell-based
Description: as §6, §7

Microsporum canis [10] = assay: Antibacterial and antifungal activity of lanomycin, agar dilution assay (Table 4); type: cell-based
Description: as §5
(§8) **Higher value is based on hazy growth; lower value for clearly

Epidermophyton floccosum = assay: as above; type: cell-based
Description: as §5, §8

dermatophytes = assay: antifungal activity of lanomycin; type: cell-based; details: in words
Description: as §5, §7

[11] = acute toxicity, intraperitoneal administration to mice; details: mouse, in vivo, ip, random bred Swiss Webster Female mice
[12] = Saccaromyces cerevisiae SGY 379, disc with 10 μl of 1 mg/ml
[13] = SC2210, Candida quillermondi SC 2210, disc with 10 μl of 1 mg/ml, read-out: Zone diameter
[14] = Candida, SC2966, read-out: Zone diameter

Q: What does the source list for C/C=C/C=C/C=C(\C)[C@H]1OC[C@@H](C)[C@@H](OC)[C@@H]1OC(=O)CN (relative stereo) [Lanomycin]?
A: zone of inhibition at 1000 µg/mL (Saccaromyces cerevisiae; Saccaromyces cerevisiae SGY 195, disc with 10 μl of 1 mg/ml): 25 mm; zone of inhibition at 1000 µg/mL (Saccaromyces cerevisiae; [12]): 30 mm; zone of inhibition at 1000 µg/mL (Candida glabrata): 33 mm; zone of inhibition at 1000 µg/mL (Candida quillermondi; Candida, SC2996, read-out: Zone diameter): 29 mm; zone of inhibition at 1000 µg/mL (Candida quillermondi; [13]): 30 mm; zone of inhibition at 1000 µg/mL (Candida krusei): 12 mm; zone of inhibition at 1000 µg/mL (Candida albicans [1]; SC4314, Candida albicans SC 4314, disc with 10 μl of 1 mg/ml, read-out: Zone diameter): 32 mm; zone of inhibition at 1000 µg/mL (Cryptococcus neoformis; Cryptococcus, SC5817, read-out: Zone diameter): 21 mm; zone of inhibition at 1000 µg/mL (Candida tropicalis [2]; Candida tropicalis, SC2963, read-out: Zone diameter): 28 mm; zone of inhibition at 1000 µg/mL (Candida tropicalis [2]; Candida tropicalis, SC8159, read-out: Zone diameter): 29 mm; zone of inhibition at 1000 µg/mL (Candida parakrusei; Candida, SC2621, read-out: Zone diameter): 27 mm; zone of inhibition at 1000 µg/mL (Candida parakrusei; [14]): 12 mm; inhibition of cytochrome P450 enzymes, such as lanosterol demethylase [3]: inhibit; MIC (Staphylococcus aureus; SC1276, Staphylococcus aureus SC 1276): > 100 µg/mL; MIC (Staphylococcus aureus; SC2399, Staphylococcus aureus SC 2399): > 100 µg/mL; MIC [4]: 0.8 µg/mL (≈ 2.59 µM); MIC (Pseudomonas aeruginosa): > 100 µg/mL; MIC (Candida guillermondii): 1.6 µg/mL (≈ 5.17 µM); MIC (Micrococcus luteus): > 100 µg/mL; MIC (Klebsiella aerogenes): > 100 µg/mL; MIC (Candida albicans [5]; SC5314, Candida albicans SC 5314): > 100 µg/mL; MIC (Candida albicans [5]; SC11422, Candida albicans SC 11422): 100 µg/mL (≈ 323 µM); MIC (Escherichia coli): > 100 µg/mL; MIC (Enterococcus faecalis): > 100 µg/mL; MIC (Aspergillus fumigatus [6]): 100 µg/mL (≈ 323 µM); MIC (Trichophyton rubrum): 1.6 µg/mL (≈ 5.17 µM); MIC (Candida tropicalis [7]): 25 µg/mL (≈ 80.8 µM); MIC (Proteus mirabilis): > 100 µg/mL; activity against a variety of yeasts and fungi (yeasts and fungi): has activity; MIC (Microsporum canis [8]): 0.4 µg/mL (≈ 1.29 µM); MIC (Aspergillus fumigatus [9]; SC2100, Aspergillus fumigatus SC 2100, 10^3 cfu): 100 µg/mL (≈ 323 µM); activity against Aspergillus fumigatus (Aspergillus fumigatus [9]; in words, Table 6): inactive; MIC (Microsporum canis [10]; SC9237, Microsporum canis SC 9237, higher value, based on hazy growth): 100 µg/mL (≈ 323 µM); MIC (Microsporum canis [10]; SC9237, Microsporum canis SC 9237, lower value, clearly discernible growth): 1.6 µg/mL (≈ 5.17 µM); MIC (Epidermophyton floccosum; SC9185, Epidermophyton floccosum SC 9185, higher value, based on hazy growth): 100 µg/mL (≈ 323 µM); MIC (Epidermophyton floccosum; SC9185, Epidermophyton floccosum SC 9185, lower value, clearly discernible growth): 1.6 µg/mL (≈ 5.17 µM); activity against dermatophytes (dermatophytes; Table 4): showed activity; activity against dermatophytes (dermatophytes; Table 6): active; LD50 [11]: 385 mg/kg

Q: What does the source list for CCC/C=C/C=C/C=C(\C)[C@H]1OC[C@@H](C)[C@@H](OC)[C@@H]1OC(=O)CN (relative stereo) [Scopularin, (2α, 3β, 4α, 5α)-Tetrahydro-4-methoxy-5-methyl-2-(1-methyl-1,3,5-nonatrienyl)-2H-pyran-3-ol, aminoacetate ester]?
A: zone of inhibition at 1000 µg/mL (Saccaromyces cerevisiae; [12]): 30 mm; zone of inhibition at 1000 µg/mL (Saccaromyces cerevisiae): 23 mm; zone of inhibition at 1000 µg/mL (Candida glabrata): 36 mm; zone of inhibition at 1000 µg/mL (Candida quillermondi; [13]): 31 mm; zone of inhibition at 1000 µg/mL (Candida quillermondi; SC2996, Candida quillermondi SC 2996, disc with 10 μl of 1 mg/ml, read-out: Zone diameter): 32 mm; zone of inhibition at 1000 µg/mL (Candida krusei): 20 mm; zone of inhibition at 1000 µg/mL (Candida albicans [1]; Candida albicans, SC4314, read-out: Zone diameter): 37 mm; zone of inhibition at 1000 µg/mL (Cryptococcus neoformis; SC5817, Cryptococcus neoformis SC 5817, disc with 10 μl of 1 mg/ml, read-out: Zone diameter): 25 mm; zone of inhibition at 1000 µg/mL (Candida tropicalis [2]; SC2963, Candida tropicalis SC 2963, disc with 10 μl of 1 mg/ml, read-out: Zone diameter): 32 mm; zone of inhibition at 1000 µg/mL (Candida tropicalis [2]; SC8159, Candida tropicalis SC 8159, disc with 10 μl of 1 mg/ml, read-out: Zone diameter): 30 mm; zone of inhibition at 1000 µg/mL (Candida parakrusei; [14]): 20 mm; zone of inhibition at 1000 µg/mL (Candida parakrusei; SC2621, Candida parakrusei SC 2621, disc with 10 μl of 1 mg/ml, read-out: Zone diameter): 31 mm; inhibition of cytochrome P450 enzymes, such as lanosterol demethylase [3]: inhibit; activity against a variety of yeasts and fungi (yeasts and fungi): has activity
